In US20110280881A1, “NOVEL ANTI-HSP90 MONOCLONAL ANTIBODY” (RIKEN, priority 2010, published 2011):

What was measured:
DC2.4 cells = assay: Influence of HSP90 inhibitors on expression of cell surface HSP90 (FACS with 6H8); format: cell-based; conditions: DC2.4, 37° C., 3 hours; OVA 1 mg/ml, radicicol 25 μM, novobiocin 400 μM
Method: DC2.4 cells were incubated in the presence of OVA (in FIG. 4A, i; 1 mg/ml), radicicola (in FIG. 4A, ii; 25 μM) or novobiocin (in FIG. 4A, iii; 400 μM) with 5% CO2 at 37° C. for 3 hours. Next, the cells were cooled on ice. To detect cell surface HSP90, the cells were stained with the 6H8 antibody and then analyzed by FACS.

[1] = tested on: DC2.4 cells and mouse GM-CSF-dependent BMDC; assay: Influence of cytokines on expression of cell surface HSP90 (FACS with 6H8); format: cell-based; conditions: for expression of cell surface HSP90 after IFN treatment: DC2.4 and mouse GM-CSF-dependent BMDC, 24 hours, IFNα 500 U/ml, IFNβ 500 U/ml, IFNγ 50 ng/ml; for MFI of cell surface HSP90 after cytokine treatment versus negative control: BMDC, cytokines 100 ng/ml or 10 ng/ml
Method: In view of the possibility that cytokines are variation factors for the expression of cell surface HSP90, the influences of various cytokines on the expression of cell surface HSP90 were examined as described below.
The solid bars indicate the MFI for BMDC incubated in the presence of high concentrations of IFNs (as in FIG. 5B) or other cytokines (100 ng/ml); the grey bars indicate the MFI for BMDC incubated in the presence of low concentrations of IFNs (as in FIG. 5B) or other cytokines (10 ng/ml). The open bars indicate the MFI for BMDC incubated in the absence of the cytokines as negative controls.

OT-I CD8+ T cells [2] = assay: In vitro cross-presentation assay with BMDC of normal and FcRγ KO mouse; format: cell-based; conditions: BMDC pulsed 3 hours, co-culture with OT-I CD8+ T cells, IFNγ ELISA
Method: (1) A bone marrow-derived dendritic cells (BMDCs) were established from a normal mouse and an FcRγ KO mouse (supplied by Professor Akira Shibuya, Immunology, Life System Medical Sciences, Majors of Medical Sciences, Graduate School of Comprehensive Human Sciences, University of Tsukuba) as described below. Bone marrow was recovered from a mouse femur and tibia, and 1×10^6 cells each were cultured in a 24-well plate using 2 ml/well of a complete RPMI containing 20 ng/ml recombinant mouse GM-CSF (R&D). Half of the medium was exchanged for a fresh medium on day 3 of cultivation, and the cells obtained on day 5 of cultivation were used as the BMDC. (2) BMDCs at Day 5 induced in a GM-CSF-dependent manner was stained with biotin-6H8 (2.5 μg/ml) and streptavidin-APC (0.2 μg/ml), and its fluorescence was determined using FACS Canto (BD).
(1) A pellet of 1×10^6 BMDC cells at Day 5 induced in a GM-CSF-dependent manner were prepared in a 15-ml tube. After adding 400 μl of an antigen (6H8-OVA, OVA, or OVA257-264) thereto, the tube was incubated with 5% CO2 at 37° C. for 3 hours. The cells were fixed in 0.5% para-formaldehyde, after which the cells were washed with 0.1 M glycine and then with RPMI; thereafter, the density was adjusted to 1×10^5 cells/ml. (2) Concurrently, OT-I CD8^+ T cells were purified and the density was adjusted to 1×10^5 cells/ml. […]

OT-I CD8+ T cells [3] = assay: In vivo cross-presentation assay with free 6H8 antibody administered concurrently; parameters: species or system mouse; conditions: antigen 0.3 μg with free 6H8 antibody 30 μg, 72 hours
Method: (1) CFSE-labeled CD8^+ T cells of an OT-I/CD45.1 mouse were transferred to recipient mice from the tail vein, with 6H8-OVA [or 6H8 (F(ab′)2)—OVA, or OVA, or IgG2a-OVA] (0.3 μg) and the free 6H8 antibody [or 6H8 (F(ab′)2) or IgG2a] (30 μg) administered from the tail vein concurrently. (2) 72 hours later, the spleen was recovered from each mouse, and 2×10^6 splenocytes were stained with the PE-CD45.1 antibody in a 96-well round-bottomed plate for 30 minutes (while cooling on ice). (3) The CFSE intensity of CD45.1-positive cells (OT-I CD8^+ T cells) was determined using FACS Canto (BD).

| Compound | influence on expression level of surface HSP90 (DC2.4 cells) | MFI of cell surface HSP90 after cytokine treatment versus negative control [1] | further results |
| --- | --- | --- | --- |
| CO[C@@H]1[C@@H](OC(N)=O)[C@@H](O)[C@H](Oc2ccc3c(O)c(NC(=O)c4ccc(O)c(CC=C(C)C)c4)c(=O)oc3c2C)OC1(C)C [novobiocin] | no or almost no influence |  |  |
| C[C@@H]1C[C@H]2O[C@@H]2/C=C\C=C\C(=O)Cc2c(Cl)c(O)cc(O)c2C(=O)O1 [radicicol] | no or almost no influence |  |  |
| IFNα |  |  | expression of cell surface HSP90 after IFN treatment [1]: increased |
| IFNγ: cytokine |  |  | expression of cell surface HSP90 after IFN treatment [1]: increased |
| IL-5: cytokine |  | no significant difference from the negative control |  |
| IL-6: cytokine |  | no significant difference from the negative control |  |
| IL-15: cytokine |  | no significant difference from the negative control |  |
| IL-18: cytokine |  | no significant difference from the negative control |  |
| OVA257-264: major OVA epitope peptide (SIINFEKL) |  |  | cross-presentation potential of FcRγ KO mouse-derived dendritic cells compared with normal mouse-derived dendritic cells (OT-I CD8+ T cells [2]): equivalent |
| ovalbumin [ovalbumin used as a model antigen] | do not influence |  | enhancing effect by the 6H8 antibody on proliferation reaction of OT-I CD8+ T cells with this antigen (OT-I CD8+ T cells [3]): not noted; cross-presentation potential of FcRγ KO mouse-derived dendritic cells compared with normal mouse-derived dendritic cells (OT-I CD8+ T cells [2]): equivalent |
